Values after ≈ are worked out from the molar mass of the structure shown. Read-outs that look alike come from different tables or passages of the source.
Tests used:
[1] = Thermodynamic equilibrium aqueous solubility assay; format: physicochemical; settings: thermodynamic from solid; for solubility thermodynamic: aqueous solvent, read-out: Aq. sol., mg/mL (pH)
Method: Thermodynamic Equilibrium Aqueous Solubility Assay
The calibration standard is prepared by accurately weighing 0.5-0.7 mg of sample in 5 ml of methanol. If the material is not fully soluble in methanol, other solvents such as DMSO or mixed solvents will be used.
*The calibration standard is typically prepared fresh immediately before the start of the assay. A two-point calibration curve should be used to determine the concentration of the final solution. A serial dilution is performed on the standard solution.
The final saturated solution is prepared by adding 1.0 ml of the appropriate aqueous solvent to the remaining portion of material (˜1 mg/l ml) into a 1 dram vial. The solution is sonicated and vortexed for ˜30 seconds. The sample solution is placed on an orbiter that continually agitates the sample solutions for 15-24 hours at room temperature. The final saturated solution is then transferred to a 1.5 ml Eppendorf tube and centrifuged for ˜2 min. at 10000 rpms. The supernatant from the saturated solution is transferred to a glass HPLC vial without filtering since the 1.5 mL volume is insufficient to saturate a syringe filter. This sample preparation procedure nullifies the effects of non-specific binding to the filtering apparatus.
The standards and sample are analyzed by HPLC using either UV/Vis diode array or variable wavelength detection. Typical quantitation wavelengths are 210 or 254 nm; detection wavelength can be individually customized to optimize sensitivity. In addition to UV detection, mass spectrometry detection is recommended if available in order to confirm the identity of the HPLC-UV peak of interest.
Dilutions of aqueous test solutions are performed if HPLC-UV peak is beyond the linear portion of the standard calibration curve. Typical dilutions include 100 ul/900 ul (×10) or 500 ul/500 ul (2×), as required.
HPLC grade solvents are employed.

[2] = Solution stability assay (pH 1.0 and pH 7.4, 37° C.); format: physicochemical
Method: Acetonitrile Stock Solution: Prepare an Acetonitrile Stock Solution of the prodrug by dissolving 1.5-2.0 mg of accurately weighted compound in 5.0 mL of acetonitrile in 5 mL volumetric flask.
(§1) pH 7.4 Buffer Working Solution: Prepare a pH 7.4 Buffer working Solution of drug by adding 1.5 mL of the Acetonitrile Stock Solution to 3.5 mL of stability buffer in a 20 mL scintillation vial, mix very well. Using a 3 mL syringe withdraw ˜3 mL of solution and filter using the Gelman 0.45 μm syringe filter into a clean 1.5 mL LC vial. This filtered solution will be used to evaluate the prodrug degradation throughout the course of the study. Target concentration: 90-120 μg/mL (70% Aqueous: 30% Acetonitrile)
as §1, with “1.0 Acidic” for “7.4 Buffer”, “pH1.0 Working” for “pH 7.4 Buffer working”
Following the sample preparation procedure described above a single sample (n=1) is prepared for each pH condition. The samples were then placed in an HPLC autosampler maintained at 37° C. and samples were analyzed over a 24 hr period. Prodrug remaining (%) is reported relative to the initial peak area (t=0 h). In cases where a conversion to parent half-life could be calculated, a t1/2 was generated. Confirmation of the conversion to parent from the prodrug was obtained by LCMS and HPLC analysis of the final timepoint samples.
Typical LC parameters are shown below:
• HPLC System: HP1100 Series, Hewlett Packard., Heated autosampler • Analytical column. Synergi 4u Hydro C18, 4.6 mm×5.0 cm, Phenomenex • Column temperature: 40° C. • Autosampler temp: 37° C. • Flow rate: 1.0 mL/min • Injection Volume: 10 μL • Mobile Phase: A: Acetonitrile • B: 0.1% Phosphoric acid in water • Run Time: 14.0 minutes • Typical LCMS parameters are shown below: • LC-MS System: Surveyor HPLC system, ThermoFinnigan LCQ Deca XP Max (Ion trap) • Analytical column. Synergi 4u Hydro C18, 4.6 mm×5.0 cm, Phenomenex • Column temperature: 40° C. • Autosampler temp: 22° C. • Flow rate: 1.0 mL/min • Injection Volume: 5 […] • Mobile Phase: A: 95% Acetonitrile/5% 20 mM Ammonium Acetate • B: 5% Acetonitrile/95% 20 mM Ammonium Acetate • LCQ Parameters • Sheath Flow Rate: 81.64 • Aux/Sweep Flow Rate: 19.01 • Current (uA): 10.89 • Voltage (kV): 5.00 • Capillary©: 348.10 • Capillary Voltage (V): 30.44

[3] = pH 1, conversion of the prodrug to compound 1, 37° C., read-out: Aq. Stability half-life (pH 1/7.4) Hrs (converted)
[4] = pH 7.4, conversion of the prodrug to compound 1, 37° C., read-out: Aq. Stability half-life (pH 1/7.4) Hrs (converted)

| solubility thermodynamic ([1]; pH 6.5, aqueous buffer) [mg/mL] | half-life [2, 3] [h] | half-life [2, 4] [h] | solubility thermodynamic ([1]; pH 7.4, aqueous buffer) [mg/mL] | solubility ([1]; aqueous buffer, pH 6.6 buffer) [µg/mL] | half-life ([2]; pH 1, parent compound, read-out: chemical stability half-life (converted)) [h] | half-life ([2]; pH 7.4, parent compound, read-out: chemical stability half-life (converted)) [h] | Structure (SMILES) |
| --- | --- | --- | --- | --- | --- | --- | --- |
| 0.31 (≈ 589 µM) | 33 | > 22 | – | – | – | – | CC(O)C(=O)OC(C)(C)CNC(=O)N[C@@H](C(=O)N1CC[C@](O)(c2ccc(Cl)cc2)C(C)(C)C1)C(C)C (stereo partly drawn) [Example 30] |
| 7.1 (≈ 12600 µM) | 1.4 | > 22 | – | – | – | – | CC(C)[C@@H](NC(=O)NCC(C)(C)O)C(=O)N1CC[C@](OCOP(=O)(O)O)(c2ccc(Cl)cc2)C(C)(C)C1 [Example 28] |
| 0.18 (≈ 324 µM) | 100 | 30.3 | – | – | – | – | CC(O)COC(=O)OC(C)(C)CNC(=O)N[C@@H](C(=O)N1CC[C@](O)(c2ccc(Cl)cc2)C(C)(C)C1)C(C)C (stereo partly drawn) [Example 35] |
| – | 16.6 | 73 | > 0.32 | – | – | – | CC(C)[C@@H](NC(=O)NCC(C)(C)O)C(=O)N1CC[C@](OCOC(=O)[C@@H](C)O)(c2ccc(Cl)cc2)C(C)(C)C1 [Example 25] |
| – | > 22 | > 22 | 0.022 (≈ 38.6 µM) | – | – | – | CC(=O)OCOC(=O)OC(C)(C)CNC(=O)N[C@@H](C(=O)N1CC[C@](O)(c2ccc(Cl)cc2)C(C)(C)C1)C(C)C [Example 15] |
| > 0.6 | 237 | > 22 | – | – | – | – | CC(C)[C@H](N)C(=O)OC(C)(C)CNC(=O)N[C@@H](C(=O)N1CC[C@](O)(c2ccc(Cl)cc2)C(C)(C)C1)C(C)C [Example 3, (S)-1-(3-((R)-1-((S)-4-(4-chlorophenyl)-4-hydroxy-3,3-dimethylpiperidin-1-yl)-3-methyl-1-oxobutan-2-yl)ureido)-2-methylpropan-2-yl 2-amino-3-methylbutanoate] |
| 4.8 (≈ 7920 µM) | 81 | > 22 | – | – | – | – | CC(C)[C@@H](NC(=O)NCC(C)(C)OC(=O)CCOP(=O)(O)O)C(=O)N1CC[C@](O)(c2ccc(Cl)cc2)C(C)(C)C1 [Example 29] |
| – | – | – | – | 47 (≈ 104 µM) | 30 | > 22 | CC(C)[C@@H](NC(=O)NCC(C)(C)O)C(=O)N1CC[C@](O)(c2ccc(Cl)cc2)C(C)(C)C1 [Compound 1, 1-((R)-1-((S)-4-(4-chlorophenyl)-4-hydroxy-3,3-dimethylpiperidin-1-yl)-3-methyl-1-oxobutan-2-yl)-3-(2-hydroxy-2-methylpropyl)urea] |
| 2.2 (≈ 3510 µM) | 61 | 49 | – | – | – | – | CC(C)[C@@H](NC(=O)NCC(C)(C)OC(=O)OCOC(=O)/C=C/C(=O)O)C(=O)N1CC[C@](O)(c2ccc(Cl)cc2)C(C)(C)C1 [Example 6, (R,E)-3-((S)-4-(4-chlorophenyl)-4-hydroxy-3,3-dimethylpiperidine-1-carbonyl)-2,8,8-trimethyl-5,10,14-trioxo-9,11,13-trioxa-4,6-diazaheptadec-15-en-17-oic acid] |
| > 3.3 | 61 | > 22 | – | – | – | – | CC(OP(=O)(O)O)C(=O)OC(C)(C)CNC(=O)N[C@@H](C(=O)N1CC[C@](O)(c2ccc(Cl)cc2)C(C)(C)C1)C(C)C (stereo partly drawn) [Example 31] |
| > 1.2 | 97 | > 22 | – | – | – | – | CC(COC(=O)OC(C)(C)CNC(=O)N[C@@H](C(=O)N1CC[C@](O)(c2ccc(Cl)cc2)C(C)(C)C1)C(C)C)OP(=O)(O)O (stereo partly drawn) [Example 36] |
| 0.317 (≈ 558 µM) | > 22 | > 22 | – | – | – | – | CC(C)[C@@H](NC(=O)NCC(C)(C)OC(=O)CCCC(=O)O)C(=O)N1CC[C@](O)(c2ccc(Cl)cc2)C(C)(C)C1 [Example 20] |
| 0.04 (≈ 78.4 µM) | 25 | > 22 | – | – | – | – | CCC(=O)OC(C)(C)CNC(=O)N[C@@H](C(=O)N1CC[C@](O)(c2ccc(Cl)cc2)C(C)(C)C1)C(C)C [Example 5, 1-(3-((R)-1-((S)-4-(4-chlorophenyl)-4-hydroxy-3,3-dimethylpiperidin-1-yl)-3-methyl-1-oxobutan-2-yl)ureido)-2-methylpropan-2-yl propionate] |
| – | > 22 | > 22 | 0.059 (≈ 104 µM) | – | – | – | COC(=O)CCC(=O)OC(C)(C)CNC(=O)N[C@@H](C(=O)N1CC[C@](O)(c2ccc(Cl)cc2)C(C)(C)C1)C(C)C [Example 18] |
| – | > 22 | > 22 | < 0.007 | – | – | – | CCOC(=O)CCC(=O)OC(C)(C)CNC(=O)N[C@@H](C(=O)N1CC[C@](O)(c2ccc(Cl)cc2)C(C)(C)C1)C(C)C [Example 17] |
| > 0.18 | 47 | > 22 | – | – | – | – | CC(C)[C@@H](NC(=O)NCC(C)(C)OC(=O)OCOC(=O)CS(=O)(=O)O)C(=O)N1CC[C@](O)(c2ccc(Cl)cc2)C(C)(C)C1 [Example 34] |

| Structure (SMILES) | solubility thermodynamic ([1]; pH 6.5, aqueous buffer) [mg/mL] | half-life [2, 3] [h] | half-life [2, 4] [h] | solubility thermodynamic ([1]; pH 7.4, aqueous buffer) [mg/mL] | solubility ([1]; aqueous buffer, pH 6.6 buffer) [µg/mL] | half-life ([2]; pH 1, parent compound, read-out: chemical stability half-life (converted)) [h] | half-life ([2]; pH 7.4, parent compound, read-out: chemical stability half-life (converted)) [h] |
| --- | --- | --- | --- | --- | --- | --- | --- |
| CC(C)[C@@H](NC(=O)NCC(C)(C)OC(=O)Cc1ccc(OP(=O)(O)O)cc1)C(=O)N1CC[C@](O)(c2ccc(Cl)cc2)C(C)(C)C1 [Example 24] | 1.1 (≈ 1650 µM) | 77 | > 22 | – | – | – | – |
| CC(C)[C@@H](NC(=O)NCC(C)(C)OC(=O)OCOC(=O)Cc1ccc(OP(=O)(O)O)cc1)C(=O)N1CC[C@](O)(c2ccc(Cl)cc2)C(C)(C)C1 [Example 9] | 1.6 (≈ 2160 µM) | 25 | 72 | – | – | – | – |
